Data taken from PMC12040169 (PLOS Biology, 2025).

test: in vitro; details: human, hela cells, % viability

| Compound | viability at 28.5 h, 10 µM [%] |
| --- | --- |
| NC(=O)CN1CCCN(c2cc(OCCc3c[nH]c4ccccc34)ncn2)CC1 [CBK091546] | 96.6 |
| Clc1ccc(COc2ccnc(N3CCCNCC3)n2)cc1Cl [CBK091550] | 90 |
| O=C(c1ccccc1)c1ccc2[nH]nnc2c1 [CBK091608] | 94.2 |
| S=C(NCc1ccccc1)Nc1ccccc1 [CBK091617] | 105 |
| COc1ccc2[nH]c(SCC(=O)O)nc2c1 [CBK091620] | 91 |
| O=C1CC(c2cccs2)Sc2nc3ccccc3n21 (stereo not shown) [CBK091627] | 110 |
| COCCNC(=O)c1c(NC(=O)c2ccccc2C)sc2c1CCCC2 [CBK091645] | 83.9 |
| CC1=C(C(=O)OCC(C)C)C(c2ccc(C)cc2)N2C(=O)C(C)SC2=N1 (stereo not shown) [CBK091646] | 92.8 |
| CCCNc1nc(Cl)nc(NC(C)(C)C)n1 [CBK091674] | 86.3 |
| Cc1ccc(CNS(=O)(=O)N(C)C)cc1 [CBK091778] | 80.9 |
| O=C(c1cccc(C(=O)N(Cc2ccccc2)c2ccccn2)c1)N(Cc1ccccc1)c1ccccn1 [CBK091794] | 111 |
| CN(CC(=O)N1CCCCCC1)S(=O)(=O)c1cc(Cl)ccc1Cl [CBK091841] | 92.4 |
| COc1ccc(-c2cc(=O)[nH]c(SCC(=O)Nc3ccc(C)cc3)n2)cc1 [CBK091867] | 95.8 |
| CSc1nc2sc3c(c2c(=O)n1-c1ccccc1C)CC(C)(C)OC3 [CBK091875] | 99.1 |
| NC(=O)C1(N2CCCCC2)CCN(C(=S)NC2CCCC2)CC1 [CBK091884] | 88.1 |
| CCOC(=O)C1=C(C)N(CC)C(=O)NC1c1cc(OC)c(OC)c(OC)c1 (stereo not shown) [CBK091912] | 98.3 |
| CCOc1ccccc1N1CCN(C(=O)c2cc(-c3ccccc3C)nc3ccccc23)CC1 [CBK091950] | 104 |
| O=C(NC(=S)Nc1ccc(Br)cc1)c1ccccc1 [CBK092022] | 83.5 |
| O=C(NC(=S)Nc1ccccc1)c1cncc(Br)c1 [CBK092040] | 91.2 |
| CCOc1cccc(C(=O)NC(=S)Nc2nc(C)c(C(=O)OC)s2)c1 [CBK092056] | 93.6 |
| O=C(Nc1ccccc1Br)C1CCCC1 [CBK092059] | 111 |
| Cc1cc(C)nc(SCC(=O)c2ccc(F)cc2)n1 [CBK092116] | 82.1 |

| Compound | viability at 28.5 h, 10 µM [%] |
| --- | --- |
| O=c1c2ccccc2[nH]c(=S)n1CCCN1CCOCC1 [CBK092141] | 88.1 |
| c1ccc(OCCCCN2CCCC23CCc2[nH]c4ccccc4c2C3)cc1 (stereo not shown) [CBK092200T] | 89.8 |
| CN(C)CC(=O)N1CN(C(=O)c2cccc(Br)c2)C(C)(C)C1 [CBK092206C] | 97.4 |
| COc1cc(OC)nc(Oc2ccccc2C(=O)O)n1 [CBK092218] | 84.6 |
| COC(=O)c1cccc(Oc2nc(OC)cc(OC)n2)c1 [CBK092219] | 66.1 |
| COC(=O)c1ccc(Oc2nc(OC)cc(OC)n2)cc1 [CBK092221] | 113 |
| CC1(C)OC(NC2CC3CCC2C3)=NC1=O (stereo not shown) [CBK092237] | 82.8 |
| CC[C@H]1CCCCN1C(=O)c1sc2ncccc2c1Cl [CBK092276] | 104 |
| Cc1cnc2c(N3CCCC3)nc(-c3cccnc3)cn12 [CBK092277] | 98.5 |
| COc1nn(C)c(CO)c1Cc1c(Cl)cccc1Cl [CBK092285T] | 94.2 |
| COc1cc(-c2ccc3c(c2)COC2(CCCNC2)O3)cc(OC)c1OC (stereo not shown) [CBK092299] | 93 |
| CCOC(=O)c1cnc(SC)nc1NCCc1c[nH]c2cc(F)ccc12 [CBK092315] | 96 |
| O=C(NCc1csc(-c2ccccc2)n1)c1ccccc1OC(F)F [CBK092332] | 95 |
| CC(=O)[C@H]1C[C@@H](CC(=O)NCc2csc(-c3ccccc3)n2)C1(C)C [CBK092335] | 109 |
| O=C(NCc1csc(-c2ccccc2)n1)C(F)(F)F [CBK092340] | 102 |
| O=C(CCC(F)(F)F)NCc1csc(-c2ccccc2)n1 [CBK092342] | 91 |
| O=C(NCc1csc(-c2ccccc2)n1)C1CC=CCC1 (stereo not shown) [CBK092348] | 94.4 |
| Cc1nc(-c2ccccc2)sc1CNC(=O)COc1ccc(F)cc1 [CBK092350] | 86.3 |
| Cc1nc(-c2ccccc2)sc1CNC(=O)c1ccc([N+](=O)[O-])o1 [CBK092352] | 54.8 |
| COc1ccc(CCCC(=O)NCc2sc(-c3ccccc3)nc2C)cc1OC [CBK092353] | 85.2 |
| COC(C(=O)NCc1sc(-c2ccccc2)nc1C)c1ccccc1 (stereo not shown) [CBK092362] | 93.1 |
| Cc1nc(-c2ccccc2)sc1CNC(=O)C(C)c1ccc([N+](=O)[O-])cc1 (stereo not shown) [CBK092364] | 98 |

| Compound | viability at 28.5 h, 10 µM [%] |
| --- | --- |
| O=C1CSC2(C(=O)N(Cc3ccccc3)c3ccccc32)N1c1ccccc1 (stereo not shown) [CBK092391] | 100 |
| O=C1CSC2(C(=O)N(Cc3cccc(C(F)(F)F)c3)c3ccccc32)N1c1ccccc1 (stereo not shown) [CBK092392] | 108 |
| COc1ccc(N2C(=O)CSC23C(=O)N(Cc2ccc(Cl)cc2)c2ccccc23)cc1 (stereo not shown) [CBK092396] | 91.6 |
| COC(=O)c1ccc(CNc2nc(OC)cc(OC)n2)cc1 [CBK093391] | 95 |
| Nc1nn2c(c1Cc1c(Cl)cccc1Cl)OC(=O)CCC2=O [CBK093439] | 113 |
| COc1ccc(C(=O)N(CCC(C)C)Cc2nc(C)c(C)n2Cc2ccccc2Cl)c(OC)c1 [CBK093441] | 86.2 |
| Cc1ccc(N2C(=O)CSC23C(=O)Nc2ccc(Br)cc23)cc1 (stereo not shown) [CBK093453] | 84.4 |
| O=C1CSC2(C(=O)Nc3ccccc32)N1c1ccc2ccccc2c1 (stereo not shown) [CBK093461] | 106 |
| Cc1ccc(N2C(=O)CSC23C(=O)Nc2ccccc23)cc1Br (stereo not shown) [CBK093472] | 104 |
| O=C(NCc1ccccc1)c1ccc(N2C(=O)CSC23C(=O)Nc2ccccc23)cc1 (stereo not shown) [CBK093476] | 109 |
| O=C1CSC2(C(=O)Nc3ccccc32)N1c1cccc(F)c1 (stereo not shown) [CBK093488] | 99.2 |
| Clc1cncc(NCCc2c[nH]c3ccccc23)n1 [CBK093514] | 56.8 |
| Cc1ccc(S(=O)(=O)NCC2CCC(C(=O)Oc3ccc4ccc(=O)oc4c3)CC2)cc1 (stereo not shown) [CBK093519] | 87.9 |
| CC(C)Nc1nccnc1Sc1cccc(C(=O)O)c1 [CBK093581] | 96.6 |
| CC(C)Nc1cc(Sc2cccc(C(=O)O)c2)ncn1 [CBK093583] | 117 |
| O=C(O)c1cccc(Sc2cc(N3CCCC3)ncn2)c1 [CBK093586] | 113 |
| O=C(O)c1cccc(Sc2cc(C(F)(F)F)ccn2)c1 [CBK093590] | 88.7 |
| CCc1[nH]nc(C)c1Cc1c(Cl)cccc1Cl [CBK093598] | 106 |
| CN(c1nc(-c2cccnc2)cn2ccnc12)C1CCCCC1 [CBK093609] | 87 |
| CC(C)(C)c1ccc(S(N)(=O)=O)cc1NC(=O)Nc1cccc(F)c1 [CBK093643] | 100 |

same assay, conditions: human, hela cells, % viability, bulk resorufin, single well

| Compound | viability at 28.5 h, 10 µM [%] |
| --- | --- |
| COc1cc(C(=O)Nc2ccc3c(c2)COC2(CCNCC2)O3)cc(OC)c1OC [CBK091531T] | 92.3 |
| COC(=O)c1nn(Cc2ccc(OC)cc2)c2ccccc12 [CBK093526] | 31.4 |
| COc1ccc(Cn2nc(C(=O)O)c3ccccc32)cc1OC [CBK093529] | 93 |
